Patent US4248892A, “Antifibrotic agent” (Takeda Chemical Industries, Ltd., priority 1978, dated 1981)
Read-outs that look alike come from different tables or passages of the source. Values belong to the molecule of their own block, whether it stands above or below them.

Columns and labels:
[1] = tested on: protocollagen prolyl hydroxylase; test: Protocollagen prolyl hydroxylase activity in liver in carbon tetrachloride-induced hepatic cirrhosis; assay type: in vivo, Male Sprague-Dawley rats; details: CCl4 + compound, i.p. 100 mg/kg three times weekly, total 10 doses, dpm = decay per minute
Experimental: (§1) Male Sprague-Dawley rats weighting approximately 150 g each were divided into three groups. The first group received both 10% CCl4 -olive oil mixture (1 ml/rat) and compound (I) (100 mg/kg) intraperitoneally three times weekly for a total 10 doses. The second and third groups received 10% CCl4 -olive oil mixture (1 ml/rat) and olive oil (1 ml/rat) intraperitoneally three times weekly for a total 10 doses, respectively. The rats were sacrificed two days after the last injection and the livers were immediately removed for the assays.
A 10% homogenate of the liver was prepared in 20 m mol/l Tris-HCl buffer (pH 7 5) containing 0.2 mol/l NaCl, 0.1 mol/l glycine, 5×10^-5 mol/l 1,4-dithiothreitol, and 0.1% Triton X-100 using a Polytron homogenizer. The homogenate was centrifuged at 15,000 g for 20 minutes and the clear supernatant was assayed for protocollagen prolyl hydroxylase activity by the method of Hutton et al [Analytical Biochemistry 16, 384 (1966)]. The protein content of the homogenate was measured by the method of Lowry et al [Journal of Biological Chemistry 193, 265 (1951)] using bovine serum albumin as the standard.
(§2) The specific activity of protocollagen prolyl hydroxylase and hydroxyproline content in the liver treated with the compound as shown in Table 3.

Acute toxicity = test: Acute toxicity; parameters: species or system male 4-week-old mice; details: mouse, in vivo, ip; intraperitoneal; mice, groups of 5; 8 days observation
Experimental: Protocatechuic acid was intraperitoneally administered to male 4-week-old mice in groups of 5 animals and the animals were kept under observation for 8 days. The LD50 values thus found was >400 mg/kg for it.

[2] = biological target: T1, protocollagen prolyl hydroxylase (Gallus gallus, UniProt P16924); test: Activity to inhibit protocollagen prolyl hydroxylase; assay type: biochemical, chick embryos; details: concentration required for 50% inhibition of enzymic activity; pH 7.8, 37° C., 30 minutes; substrate (Pro-Pro-Gly)5.4H2O; read-out: ID50 (the source's name) (converted)
T1 construct: 190 chick embryos (14 days old) were homogenized; from tissue; host or cells: whole 14-day chick embryos; Triton X-100 extract, ammonium sulfate, calcium phosphate gel and DEAE-cellulose fractions
T1 sequence (P16924 1-516): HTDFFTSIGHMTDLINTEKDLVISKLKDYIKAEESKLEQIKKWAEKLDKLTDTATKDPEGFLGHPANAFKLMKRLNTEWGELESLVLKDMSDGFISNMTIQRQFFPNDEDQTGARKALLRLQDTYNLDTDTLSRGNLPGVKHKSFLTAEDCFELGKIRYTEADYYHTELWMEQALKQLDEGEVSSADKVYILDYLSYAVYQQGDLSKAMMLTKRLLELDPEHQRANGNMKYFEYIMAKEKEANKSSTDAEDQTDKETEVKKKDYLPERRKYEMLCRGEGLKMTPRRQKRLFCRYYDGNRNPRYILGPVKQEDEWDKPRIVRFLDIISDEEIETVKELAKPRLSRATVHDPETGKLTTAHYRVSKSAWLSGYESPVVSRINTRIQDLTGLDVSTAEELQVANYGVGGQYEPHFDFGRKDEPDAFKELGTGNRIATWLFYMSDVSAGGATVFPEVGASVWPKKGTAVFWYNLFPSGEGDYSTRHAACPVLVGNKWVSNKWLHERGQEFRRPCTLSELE
T1 sequence (P09102 23-515 partner): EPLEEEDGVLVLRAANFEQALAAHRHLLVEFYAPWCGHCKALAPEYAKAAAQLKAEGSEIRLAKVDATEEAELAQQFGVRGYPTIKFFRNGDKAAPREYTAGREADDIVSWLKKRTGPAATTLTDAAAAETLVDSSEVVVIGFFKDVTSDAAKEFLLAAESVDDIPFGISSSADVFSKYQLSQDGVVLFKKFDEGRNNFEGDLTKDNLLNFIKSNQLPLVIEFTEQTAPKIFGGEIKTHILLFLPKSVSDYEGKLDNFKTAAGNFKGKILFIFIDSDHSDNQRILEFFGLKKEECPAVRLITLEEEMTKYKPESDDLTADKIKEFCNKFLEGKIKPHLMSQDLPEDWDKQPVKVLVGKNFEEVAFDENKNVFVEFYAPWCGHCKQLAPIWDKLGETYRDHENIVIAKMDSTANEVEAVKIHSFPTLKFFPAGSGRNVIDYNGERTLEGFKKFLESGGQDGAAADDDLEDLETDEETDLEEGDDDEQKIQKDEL
Experimental: Method for the preparation of protocollagen prolyl hydroxylase: The method of K.I. Kivirikko et al and that of J. Halme et al were partially modified. [cf. Journal of Biological Chemistry 242, 4007 (1967) and Biochimica et Biophysica Acta 198, 460 (1970)]. Thus, 190 chick embryos (14 days old) were homogenized in 1600 ml of NaCl-GlycineTris[tris(hydroxymethyl)aminomethane]-HCl buffer containing 0.1% Triton [polyethylene glycol p-isooctylphenyl ether] X-100 (pH 7.5) and centrifuged. […]
Thus, 1.5 ml of a reaction mixture containing 50 μmols of Tris-HCl buffer (pH 7.8), 0.1 μmol of 1-^14 C-α-ketoglutarate (0.016 μ Ci), 0.5 μmol of ascorbate, 0.1 μmol of ferrous ammonium sulfate, 4.0 mg of heat denatured bovine serum albumin, 0.1 mg of crystalline bovine liver catalase, 0.15 μmol of dithiothreitol, 0.15 mg of (Pro-Pro-Gly)5.4H2 O, 0.5 ml of the enzyme solution and 0.1 ml of either methanol or methanol solution containing an inhibitor was put in a sealed test tube in which a filter paper impregnated with Hyamine (Hydroxide and Hyamine 10-X (Packard Instrument Co.)] had been hung and the reaction was carried out under shaking at 37° C. for 30 minutes. The reaction was terminated by the addition of 0.5 ml of 25% trichloroacetic acid and the enzymic activity was determined by measuring the radioactivity of the released ^14 CO2 trapped in filterpaper. […]

collagen biosynthesis [3] = test: Hydroxyproline content of liver in carbon tetrachloride-induced hepatic cirrhosis; assay type: in vivo, Male Sprague-Dawley rats; details: CCl4 + compound, i.p. 100 mg/kg three times weekly, total 10 doses
Experimental: as §1
Hydroxyproline content of the livers was measured in a 6N-HCl hydrolysate (110° C., 22h) by the method of Blumenkrantz et al.
as §2

collagen biosynthesis [4] = test: Inhibition of collagen biosynthesis in normal rats (uteri of 17-β-estradiol-stimulated immature rats); assay type: in vivo, SD rats (female, 3 weeks old); details: i.p. 100 mg/kg at intervals of 24 hours, 6 days; for inhibition at 100 mg/kg: Rattus norvegicus, ip, vs 17-β-estradiol control
Experimental: According to the partially modified method of R.A. Salvador et al [Archives of Biochemistry and Biophysics 174, 382 (1976)], the following experiment was carried out with SD rats (female, 3 weeks old) in groups of 4 animals.
The test compound suspended in 4% gum arabic-physiological saline was intraperitoneally administered to rats in doses of 100 mg/kg at intervals of 24 hours for 6 consecutive days.
During the final 3 days, 5 μg/rat of 17-β-estradiol in 5% ethanol-saline solution or 5% ethanol-saline solution was administered one hour after the administration of compound (I). On the 7th day, each rat was killed and the uterus was excised, washed with ethanol-diethylether, dried at 60° C. for 2 hours and weighted to know the dry weight. The dry preparation was hydrolyzed with 3 ml of 6N-HCl at 110° C. for 22 hours, after which it was concentrated to dryness to remove the hydrochloric acid. The total amino acid in the hydrolyzate was determined by ninhydrin assay and from this value the total protein content of uterus was calculated as leucine equivalent. The amount of hydroxyproline in the hydrolyzate was also measured by the method of Blumenkratz et al [Analytical Biochemistry 63, 331 (1975)] and multiplied by 7.23 to obtain the amount of collagen. The amount of noncollagenous protein was calculated by substracting the amount of collagen from the total amount of protein.
The inhibitory activity of this compound on the synthesis of collagen and noncollagenous protein in the uteri of 17-β-estradiol-stimulated immature rats are shown as % reductions in the amounts of collagen and noncollagenous protein. Inhibition rate is calculated by the equation described in the legend of Table 2.

[5] = 17-β-estradiol + compound, uterus, 7th day

Structure (SMILES): O=C(O)c1ccc(O)c(O)c1 [Protocatechuic acid, protocatechuic acid]
Prolyl hydroxylase [1]: 1463 ± 236 dpm/mg of protein
LD50 at 192 h (Acute toxicity): > 400 mg/kg
IC50 [2]: 19.5 µM
Hydroxyproline (collagen biosynthesis [3]): 0.70 ± 0.09 μg/mg of liver
Body weight of rats, 7th day (collagen biosynthesis [4]; 17-β-estradiol + compound): 75 ± 3 g
Total collagen (collagen biosynthesis [4]; [5]): 3.31 ± 0.37 mg/uterus
Total protein (collagen biosynthesis [4]; [5]): 25.4 ± 2.2 mg/uterus
inhibition at 100 mg/kg (collagen biosynthesis [4]; uterus, read-out: Inhibition rate, collagen): 85%
inhibition at 100 mg/kg (collagen biosynthesis [4]; uterus, read-out: Inhibition rate, noncollagenous protein): 15%

IC50 [2]: 17.8 µM
Structure (SMILES): O=C(O)Cc1ccc(O)c(O)c1 [Homoprotocatechnic acid, homoprotocatechuic acid]
